Data: patent US6737383B1, “Herbicidal oxadiazolidines” (priority 1999, dated 2004)

Columns and labels:
[1] = tested on: bedstraw; assay: Test B pre/postemergence bedstraw; type: in vivo, Galium aparine
How it was run: (§1)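 Response is a visual 0-to-10 score relative to untreated plants, where 0 means no effect and 10 means complete control, taken twelve to sixteen days after application. Treatments went onto soil at planting and onto foliage of 1- to 4-leaf plants, using a surfactant-containing non-phytotoxic solvent.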

[2] = tested on: blackgrass; assay: Test B pre/postemergence blackgrass; type: in vivo, Alopecurus myosuroides
How it was run: as §1

[3] = tested on: surinam grass; assay: Test B pre/postemergence surinam grass; type: in vivo, Brachiaria decumbens
How it was run: as §1

[4] = tested on: cocklebur; assay: Test B pre/postemergence cocklebur; type: in vivo, Xanthium strumarium
How it was run: as §1

[5] = tested on: corn; assay: Test B pre/postemergence corn; type: in vivo, Zea mays
How it was run: as §1

[6] = tested on: crabgrass; assay: Test B pre/postemergence crabgrass; type: in vivo, Digitaria sanguinalis
How it was run: as §1

[7] = tested on: giant foxtail; assay: Test B pre/postemergence giant foxtail; type: in vivo, Setaria faberii
How it was run: as §1

[8] = tested on: pigweed; assay: Test B pre/postemergence pigweed; type: in vivo, Amaranthus retroflexus
How it was run: as §1

[9] = tested on: soybean; assay: Test B pre/postemergence soybean; type: in vivo, Glycine max
How it was run: as §1

[10] = tested on: sugar beet; assay: Test B pre/postemergence sugar beet; type: in vivo, Beta vulgaris
How it was run: as §1

[11] = tested on: velvetleaf; assay: Test B pre/postemergence velvetleaf; type: in vivo, Abutilon theophrasti
How it was run: as §1

[12] = tested on: wheat; assay: Test B pre/postemergence wheat; type: in vivo, Triticum aestivum
How it was run: as §1

[13] = tested on: wild oat; assay: Test B pre/postemergence wild oat; type: in vivo, Avena fatua
How it was run: as §1

[14] = tested on: purple nutsedge; assay: Test B pre/postemergence purple nutsedge; type: in vivo, Cyperus rotundus
How it was run: as §1

[15] = tested on: rice; assay: Test B flood test rice; type: in vivo, Oryza sativa
How it was run: (§2)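 Plants were grown to the 2-leaf stage before treatment with test chemical, then held in a greenhouse for twelve to sixteen days. Injury was visually rated against untreated controls on a 0–10 scale, where 0 is no effect and 10 is complete control.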

[16] = tested on: duck salad; assay: Test B flood test duck salad; type: in vivo, Heteranthera limosa
How it was run: as §2

[17] = Postemergence, Rate 125 g/ha, scale 0 to 10, 0 is no effect, 10 is complete control
[18] = Postemergence, Rate 500 g/ha, scale of 0 to 10 where 0 is no effect and 10 is complete control
[19] = Preemergence, Rate 62 g/ha, scale 0 to 10 (0 no effect, 10 complete control)
[20] = Preemergence, Rate 125 g/ha, scale of 0 to 10 where 0 is no effect and 10 is complete control
[21] = Rate 62 g/ha, Postemergence, scale of 0 to 10 where 0 is no effect and 10 is complete control
[22] = Postemergence, Rate 250 g/ha, scale 0 to 10, 0 is no effect, 10 is complete control
[23] = Preemergence, Rate 250 g/ha, scale of 0 to 10 where 0 is no effect and 10 is complete control
[24] = Preemergence, Rate 500 g/ha, scale 0 to 10, 0 is no effect, 10 is complete control
[25] = Preemergence, Rate 250 g/ha, scale 0 to 10, 0 is no effect, 10 is complete control
[26] = Rate 62 g/ha, flood test species, Pre-emergence, visual evaluation after twelve to sixteen days
[27] = Rate 125 g/ha, under heading Pre-emergence, flood test species, visual evaluation after twelve to sixteen days
[28] = Rate 250 g/ha, Pre-emergence, flood-test species, scale 0 to 10, 0 is no effect, 10 is complete control
[29] = Rate 500 g/ha, Pre-emergence, flood test species, scale 0 to 10 (0 no effect, 10 complete control)

CC(C)N(C(=O)n1oc(=O)n(CC2CCC2)c1=O)c1ccc(F)cc1 [Compound 403]
2: Plant response rating, Bedstraw [1, 17] | Plant response rating, Blackgrass [2, 19] | Plant response rating, B. signalgrass [3, 17] | Plant response rating, Corn [5, 20] | Corn plant response rating [5, 25] | Crabgrass plant response rating [6, 21] | Redroot pigweed plant response rating [8, 18] | Soybean plant response rating [9, 24]
10: Plant response rating, Blackgrass [2, 22] | Blackgrass plant response rating [2, 18] | Plant response rating, Crabgrass [6, 19] | Plant response rating, Crabgrass [6, 20] | Crabgrass plant response rating [6, 25] | Crabgrass plant response rating [6, 24] | Plant response rating, Giant foxtail [7, 19] | Plant response rating, Giant foxtail [7, 20] | Giant foxtail plant response rating [7, 25] | Giant foxtail plant response rating [7, 24]
8: Bedstraw plant response rating [1, 18] | Plant response rating, Crabgrass [6, 22] | Soybean plant response rating [9, 18] | Wild oats plant response rating [13, 24]
1: Plant response rating, Redroot pigweed [8, 22] | Plant response rating, Sugarbeets [10, 20]
7: Plant response rating, Blackgrass [2, 20] | Blackgrass plant response rating [2, 23] | B. signalgrass plant response rating ([3]; Preemergence, Rate 500 g/ha, scale of 0 to 10 where 0 is no effect and 10 is complete control)
3: Plant response rating, B. signalgrass [3, 22] | Plant response rating, B. signalgrass [3, 19] | Plant response rating, Crabgrass [6, 17] | Plant response rating, Giant foxtail [7, 17] | Giant foxtail plant response rating [7, 21] | Sugarbeets plant response rating [10, 18] | Sugarbeets plant response rating [10, 25] | Velvetleaf plant response rating [11, 25]
9: Plant response rating, Blackgrass [2, 17] | Blackgrass plant response rating [2, 24] | Crabgrass plant response rating [6, 18] | Plant response rating, Giant foxtail [7, 22] | Giant foxtail plant response rating [7, 18] | Redroot pigweed plant response rating [8, 25] | Redroot pigweed plant response rating [8, 24]
6: Blackgrass plant response rating [2, 21] | B. signalgrass plant response rating [3, 18] | Corn plant response rating [5, 24] | Plant response rating, Soybean [9, 22] | Velvetleaf plant response rating [11, 18]
5: B. signalgrass plant response rating [3, 23] | Sugarbeets plant response rating [10, 24] | Velvetleaf plant response rating [11, 24] | Wild oats plant response rating [13, 18] | Wild oats plant response rating [13, 25]
0: Plant response rating, Bedstraw [1, 19] | Plant response rating, Bedstraw [1, 20] | Bedstraw plant response rating [1, 21] | B. signalgrass plant response rating [3, 21] | Plant response rating, Cocklebur [4, 17] | Plant response rating, Cocklebur [4, 22] | Cocklebur plant response rating [4, 18] | Plant response rating, Cocklebur [4, 19] | Plant response rating, Cocklebur [4, 20] | Cocklebur plant response rating [4, 25] | Cocklebur plant response rating [4, 21] | Plant response rating, Corn [5, 17] | Plant response rating, Corn [5, 22] | Corn plant response rating [5, 18] | Plant response rating, Corn [5, 19] | Corn plant response rating [5, 21] | Plant response rating, Redroot pigweed [8, 19] | Redroot pigweed plant response rating [8, 21] | Plant response rating, Soybean [9, 19] | Plant response rating, Soybean [9, 20] | Soybean plant response rating [9, 25] | Plant response rating, Sugarbeets [10, 22] | Plant response rating, Sugarbeets [10, 19] | Sugarbeets plant response rating [10, 21] | Plant response rating, Velvetleaf [11, 22] | Plant response rating, Velvetleaf [11, 19] | Plant response rating, Velvetleaf [11, 20] | Velvetleaf plant response rating [11, 21] | Plant response rating, Wheat [12, 19] | Plant response rating, Wheat [12, 20] | Wheat plant response rating [12, 25] | Wheat plant response rating [12, 24] | Wheat plant response rating [12, 21] | Plant response rating, Wild oats [13, 19] | Wild oats plant response rating [13, 21] | Plant response rating, Nutsedge [14, 22] | Nutsedge plant response rating [14, 18] | Plant response rating, Nutsedge [14, 19] | Plant response rating, Nutsedge [14, 20] | Nutsedge plant response rating [14, 25] | Nutsedge plant response rating [14, 24] | Nutsedge plant response rating [14, 21] | Plant response rating, Rice (0 to 10 scale, 0 is no effect, 10 is complete control) [15, 26] | Rice plant response rating (0 to 10 scale, 0 is no effect, 10 is complete control) [15, 27] | Rice plant response rating [15, 28] | Rice plant response rating [15, 29] | Plant response rating, Ducksalad (0 to 10 scale, 0 is no effect, 10 is complete control) [16, 26] | Ducksalad plant response rating (0 to 10 scale, 0 is no effect, 10 is complete control) [16, 27] | Ducksalad plant response rating [16, 28] | Ducksalad plant response rating [16, 29]
4: Plant response rating, B. signalgrass [3, 20] | Plant response rating, Redroot pigweed [8, 20] | Soybean plant response rating [9, 21] | Wheat plant response rating [12, 18] | Plant response rating, Wild oats [13, 20]
